{"source": "patent US20260071252A1", "about": "“REVERSIBLE NANOPARTICLE AGGREGATES AND METHODS FOR DETECTING PROTEASES” (The Regents of the University of California, priority 2022, published 2026)", "key": {"[1]": {"experiment": "Colloidal stability of the dissociated AuNPs (aggregation parameter)", "format": "physicochemical", "conditions": "for colloidal stability of peptide-capped AuNPs: NaCl 0.5 to 2 μM (so in the source), absorbance 520/600 nm", "description": "We further studied the role of Glu, Lys, and Pro amino acids in A1 peptides (FIG. 37h). For example, Pro-based spacer can provide a rigid and self-assembling monolayer (SAM) that increases the colloidal stability of AuNPs.^28 When the spacer was moved to the site between Glu and Lys residues (i.e., A5), the dissociation capacity was 50% lower than A1 peptide. […] A1 peptide without Lys (i.e., A7) decreased to 30% of the dissociation capacity likely due to the decrease in grafting kinetics of thiol-Au bonds and hydration layers.^22,25 Lastly, the dissociated AuNPs were incubated in different concentrations ([…]) of NaCl to examine colloidal stability of the dissociated AuNPs (FIG. 37i).\nPro-, Ala-, and Gly-based spacers have different hydrophobic and hydrophilic natures, rigidity, and flexibility.^22,29 For example, Pro residue is more hydrophobic and rigid (i.e, low mobility) while Gly residue is more hydrophilic and flexible. To investigate the impact of the rigidity and hydrophilicity of the peptides on the particle dissociation, we synthesized A1, A10, and A11 peptides that have different spacers: PP, AA, GG (FIG. 38a-b and FIG. 49). We also synthesized the peptide without a spacer (i.e., A9) to confirm the impact of the spacer on particle dissociation. […] We further compared colloidal stability of the dissociated AuNPs by A1, A9, A10, and A11 peptides. The dissociated AuNPs were incubated in NaCl (from […]) for 1 h and measured variations of absorbance between 520 nm and 600 nm.\nThis exemplary dissociation strategy can also improve colloidal stability of plasmonic nanoparticles. […] Lastly, this exemplary dissociation strategy is less affected by matrix interference. We replaced the sample matrix with 100% human plasma, urine, saliva, and seawater after RRK-based AuNPs aggregation. After adding dissociation peptides, reversible aggregation still occurred, leading to a blue-shift of the plasmonic resonance peak; this in turn changes color from blue to red in 100% human plasma, urine, saliva, and seawater (FIG. 40j-k and FIG. 27)."}, "[2]": {"biological_target": "SARS-CoV-2 main protease (Mpro) (Severe acute respiratory syndrome coronavirus 2, UniProt P0DTD1)"}, "[3]": {"experiment": "Dissociation efficiency of HS-PEG6-OCH3 for alternative assembly conditions or coating ligands", "conditions": "high concentration (>100 μM) of HS-PEG6-OCH3", "quoted_text": "First, peptide-free conditions were used to promote the assembly of AuNPs-citrate and its dissociation with HS-PEG6-OCH3 was evaluated (FIG. 3A). Here, salts were added to AuNPs-citrate to induce aggregation via disruption of the electrostatic repulsion forces between the particles. […] Unlike the peptide Arg-Arg, these ions cannot sterically prevent the AuNPs from falling in an irreversible aggregated state.\nAuNPs with different coating ligands were also evaluated and compared to citrate: bis(p-sulfonatophenyl)phenylphosphine (BSPP), mercaptobenzoic acid (MBA), or thiolated PEG-COOH (HS-PEG-COOH; Mw=634 g·mol^−1). […] This is because MBA and HS-PEG-COOH make covalent Au—S bonds with the gold surface that prevent subsequent grafting of HS-PEG6-OCH3.\nFinally, an alternative control peptide was used for assembly (Cys-Arg-Lys)."}, "trypsin": {"tested_on": "trypsin", "experiment": "Trypsin sensing with HS-PEG-peptide conjugates and Arg-Arg-AuNPs assemblies", "format": "biochemical", "description": "Peptides containing the motif Arg-Arg-Lys (RRK) were thus conjugated to a thiolated PEG capped with a carboxyl group (HS-PEG12-COOH, Mw=634 Da) via EDC/NHS cross-linking reaction. Three peptides based on the motif RRK were investigated and the number of RRK repetitions varied from 1 to 3 to increase the mass and charge of the resulting HS-PEG-peptide conjugate (FIG. 6A).\nFrom concentrations of 10 μM, HS-PEG12-COOH is capable to dissociate 100% of the assemblies (FIG. 21). However, the conjugation of the peptides to the HS-PEG12-COOH was expected to decrease its capacity to dissociate the assemblies as it increases its size and charge. In this context, the addition of the HS-PEG-peptide conjugates to AuNPs assemblies could not generate a colorimetric signal. However, in the presence of trypsin, the proteolytic cleavage could progressively remove the amino acids residues from the conjugate, thus reducing its size and charge that would restore the dissociation capacity. A colorimetric signal, proportional to the trypsin activity, could thus be observed (FIG. 6B).\nTypically, 1 mL of HS-PEG12-COOH (HS—(CH2CH2O)12—CH2CH2COOH, 634 Da, 1 mM) dissolved in MES buffer (10 mM, pH=5.5) was activated via the addition of 100 μL of EDC (50 mM, MES) and 40 μL of NHS (500 mM, MES). The reaction was stirred at room temperature for one hour. After one hour, 1 mL of peptide (or NH2-molecule) (1 mM) dissolved in PBS (100 mM, pH=7.4) was added to the activated HS-PEG12-COOH. The reaction was stirred for 4 hours at room temperature and then stored at 4° C.\nTypically, 5 μL of the PEG-peptide conjugate (0.44 mM) were added to 5 μL of PBS 1×. […] At the end of the incubation, 100 μL of aggregated AuNPs (Arg-Arg-AuNPs) were added, and a color change proportional to the trypsin concentration was observed. UV-Vis spectra were recorded 30 minutes later."}, "[4]": {"experiment": "Peptide-enabled dissociation of RRK-induced AuNP aggregates", "description": "After inducing AuNP aggregates by the RRK peptides, the A1 peptides with different concentrations from 7 to 300 μM were used to dissociate AuNP aggregates. The plasmonic resonance peak of AuNP aggregates blue shifted to 520 nm after particle dissociation. (FIG. 37b). The hydrodynamic diameter of AuNP aggregates (greater than (>) 1 μm) was reduced to 27±0.07 nm, and the surface charge of AuNPs was—13.4±1.03 mV because of surface modification with neutral charged A1 peptides (150 μM) and residual citrates (FIG. 37c). Particle dissociation induced color change from blue to red and a decrease in size as confirmed by time-dependent photographs, multi-laser wavelength nanoparticle tracking analysis (M-NTA), and TEM (FIG. 37d-e and FIG. 45A-C).\nTo further study the role of each amino acid in the A1 peptide, we synthesized eight peptide sequences (from A2 to A8) for control experiments (FIG. 46A-H). Table 1 includes peptide sequence, net charge, critical dissociation concentrations (CDC), and design rationale. First, we replaced Cys residue with Gly (i.e., A2) to confirm the role of the anchoring group. […] Second, we hypothesized that negatively charged EE residues were required for particle dissociation because they provide electrostatic repulsions for citrate-coated AuNPs.\n(§1) Briefly, 10 μM of RRK peptide was used to aggregate 100 μL of AuNPs (conc approximately 3.6 nM). The particle aggregation rapidly occurred (less than 10 s), changing color from red to blue. Then the desired dissociation peptides were used to dissociate the AuNP aggregates. It is notable that these exemplary AuNPs are stabilized by citrate. Different surface ligands (for example, BSPP) and different sizes (40 or 60 nm) require different amounts of RRK peptide for particle aggregation.\nBriefly, RRK peptides (8-10 μM) was first used to trigger AuNP aggregation in distilled water. The sample was centrifuged at […] for 5 min to remove the supernatant. Then, the pellet was re-dispersed in 100% human saliva, plasma, urine, and seawater. After re-dispersion, the desired amounts of dissociation peptide were used to dissociate AuNPs aggregates in different matrixes. […] The experiment was performed with three replicates, and the microplate reader was used to measure spectral scanning from 300 to 900 nm before and after dissociation. The ratiometric signal (λ520/λ700) was referred as dissociation. The data was blanked to remove background signal."}, "[5]": {"experiment": "RRK-based aggregation of citrate-coated AuNPs", "conditions": "for particle aggregation of AuNPs: peptides from 0.5 to 30 μM", "excerpt": "To induce reversible aggregation of the AuNPs, we used positively charged Arg and Lys-based peptide residues (i.e., RRK). The RRK peptide could induce plasmonic coupling by electrostatic attractions between negatively charged citrate molecules and guanidine and amine groups in RRK (FIG. 36a).^8,19 The size of AuNPs increased upon addition of RRK peptides, as confirmed by transmission electron microscopy (TEM) and dynamic light scattering (DLS) (FIG. 36b and FIG. 42). […] Raman spectroscopy observed the appearance of C—C stretching at 984 cm^−1 and C—N stretching at 1443 cm^−1 from Arg residues in RRK (FIG. 36d).^20 Lastly, R, RRK, and RRKRRK (SEQ ID NO:13) peptides (from 0.5 to 30 μM) were used to induce AuNP aggregates to study the impact of charge number on particle aggregation. […] A higher positive charge number can decrease the critical coagulation concentration (CCC).^7 RRK peptide was chosen in this study because particle aggregation induced by a strong cationic peptide (i.e., RRKRRK) (SEQ ID NO:13) can result in irreversible aggregation.\nas §1"}, "[6]": {"experiment": "Peptide-induced (Arg-Arg) assembly of AuNPs-citrate, TEM/MANTA/UV-Vis", "conditions": "water", "excerpt": "Formation of AuNP assemblies. In this study, we investigated the possibility of forming convenient and reversible AuNPs assemblies using only elementary 15 nm AuNPs-citrate suspended in water and short peptides without the need for a complex surface modification. Peptides were used because they are relatively bulky and thus their steric prevented the particles from entering a permanent aggregated state. Arginine in particular can strongly interact with citrate anions via electrostatic interactions. A dipeptide containing two repetitions of arginine (Arg-Arg or RR) was thus used to interact with multiple particles at the same time and induce assembly.\nMultispectral advanced nanoparticles tracking analysis (MANTA) was then used to confirm the size increase: The initial blue scattering corresponding to a hydrodynamic diameter of 40±25 nm (FIG. 1C) transformed immediately into red scattering corresponding to a hydrodynamic diameter of approximately 467±120 nm (FIG. 1D). Importantly, the count of particles decreased by more than 90%—from 2.5×10^5/mL to 2×10^4/mL, thus confirming that the vast majority of the AuNPs-citrate were aggregated. TEM images at different magnifications are seen in the supporting information (FIG. 10 and FIG. 11).\nAuNPs Assembly and Dissociation Assembly. Typically, 1 mL of AuNPs-citrate at OD=1.5 was mixed with 50 μL of Arg-Arg (100 μM) to provoke the AuNPs assembly. The color of the suspensions rapidly changed from red to blue. The assembled AuNPs (Arg-Arg-AuNPs) were stable over time when stored at 4° C. and could be used for dissociation even month after their assembly.\nThe optical absorption measurements were collected using a hybrid multi-mode microplate reader (Synergy™ H1 model, BioTek Instruments, Inc.) in a 96-well plate. The dissociation of assembly was characterized by measuring the ratio of the absorbance at 520 nm or 530 nm and 700 nm or 820 nm for 20 nm NPs or 40 nm NPs, respectively.\nThe multispectral advanced nanoparticle tracking analysis (MANTA) is a technique that builds images from the particles' light scattering via three lasers of different wavelengths (for example, blue, green, and red); the wavelength of scattering depends on nanoparticle size. Thus, small particles (less than, or <, 100 nm) appear blue while larger particles appear greener or redder. MANTA uses these images to count the nanoparticles and calculate their size based on Brownian motion. MANTA was performed with the VIEWSIZER 3000™ (Horiba Scientific, USA). The temperature was set to 25° C. during the measurement. Automated noise analysis determines the optimal wavelength for representing each nanoparticle. Here, 8-bit composite videos were generated, and 10 videos were used per analysis (300 frames for seconds). A quartz cuvette with minimum volume of 1 mL was used for the measurement and the AuNPs concentrations was set up at 0.04 nM."}}, "note": "Several values for one entry are separate records, joined by “and”; a condition that tells them apart may be missing. Identical values can stand only once. Where no end group is shown, it is not given here."}
{"compound": "Ace-EEKKC-Am [Peptide A9]", "values": [{"measurement": "colloidal stability of peptide-capped AuNPs", "setting": "[1]", "value": "relatively low colloidal stability"}]}
{"compound": "Ace-CGGKKEEAVLQSGFR-Am (Ac-CGGKKEEAVLQSGFR-NH2) [Peptide A18]", "values": [{"measurement": "colloidal stability in extreme conditions", "setting": "[1]; DMEM, human plasma, saliva, human urine, NaCl 0.5 to 2M", "value": "maintained high colloidal stability"}, {"measurement": "CDC", "setting": "[2]", "value": "at least 40 μM"}, {"measurement": "LoD for Mpro", "setting": "[2]", "value": "12.3 nM and 16.7 nM and 16.4 nM"}, {"measurement": "specificity test", "setting": "[2]", "value": "only Mpro dissociated AuNP aggregates"}]}
{"compound": "Cys-Arg-Lys [reference compound]", "values": [{"measurement": "dissociation of the assembly by HS-PEG6-OCH3", "setting": "[3]", "value": "irreversible"}]}
{"compound": "HS-PEG-RRKRRKRRK: HS-PEG12-COOH conjugated to peptide RRKRRKRRK via EDC/NHS (also: HS-PEG12 conjugated via EDC/NHS, site not given here)", "values": [{"measurement": "dissociation capacity of the intact conjugate", "setting": "trypsin; titrated to Arg-Arg-AuNPs, up to >100 μM, no trypsin", "value": "total quenching of the dissociation capacity"}, {"measurement": "dissociation capacity after digestion with trypsin", "setting": "trypsin; trypsin 10 μM, 37° C., 24 h", "value": "restored"}]}
{"compound": "Ace-EEKKPPC-Am [Peptide A1]", "values": [{"measurement": "time to dissociate AuNP aggregates", "setting": "[4]; >150 μM peptide, ratiometric signal λ520/λ700", "value": 20, "unit": "min"}, {"measurement": "hydrodynamic diameter after dissociation", "setting": "[4]; A1 peptide 150 μM, aggregates >1 μm before", "value": "27±0.07", "unit": "nm"}, {"measurement": "CDC", "setting": "[4]; critical dissociation concentration, X (no dissociation)", "value": 150, "unit": "µM"}, {"measurement": "CDC", "setting": "[4]; spacer comparison PP, AA, GG", "value": 40, "unit": "µM"}, {"measurement": "colloidal stability of peptide-capped AuNPs", "setting": "[1]", "value": "higher colloidal stability than citrate-coated AuNPs"}]}
{"compound": "Arg-Arg-Lys [RRK]", "values": [{"measurement": "particle aggregation of AuNPs", "setting": "[5]", "value": "effectively induced particle aggregation"}, {"measurement": "plasmonic resonance peak after addition of peptide", "setting": "[5]; red-shifted from 520 nm", "value": 648, "unit": "nm"}]}
{"compound": "RRKRRK", "values": [{"measurement": "particle aggregation of AuNPs", "setting": "[5]", "value": "effectively induced particle aggregation"}]}
{"compound": "N=C(N)NCCC[C@H](N)C(=O)O", "note": "[R, arginine, reference compound]", "values": [{"measurement": "induction of assembly of AuNPs-citrate", "setting": "[6]", "value": "could not induce any form of assembly"}, {"measurement": "particle aggregation of AuNPs", "setting": "[5]", "value": "did not aggregate"}]}
